Reference: ChEMBL document CHEMBL3734739, “Synthesis and biological evaluation of novel derivatives of gambogenic acid as anticancer agents” (Medchemcomm, 2015)
Calls of active or inactive are those of the source. No cut-off for these calls is given here.

Tests used:
A549 = assay: Cytotoxicity against human A549 cells by MTT assay; format: functional, cell-based
HepG2 [1] = assay: Cytotoxicity against human HepG2 cells by MTT assay; format: functional, cell-based
[2] = Cytotoxicity against human PANC1 cells by MTT assay; format: functional, cell-based; conditions: PANC-1
U-251 = assay: Cytotoxicity against human U251 cells by MTT assay; format: functional, cell-based
HepG2 [3] = assay: Induction of apoptosis in human HepG2 cells at […] to 1.25 uM after 48 hrs by annexin V/propidium iodide staining-based flow cytometric analysis relative to control; format: functional, cell-based
HepG2 [4] = assay: Induction of apoptosis in human HepG2 cells assessed as ratio of Bcl2/Bax at 0.3125 uM after 72 hrs by western blot analysis; format: functional
HepG2 [5] = assay: Induction of apoptosis in human HepG2 cells assessed as ratio of Bcl2/Bax at 0.625 uM after 72 hrs by western blot analysis; format: functional
HepG2 [6] = assay: Induction of apoptosis in human HepG2 cells assessed as ratio of Bcl2/Bax at 1.25 uM after 72 hrs by western blot analysis; format: functional
HepG2 [7] = assay: Cell cycle arrest in human HepG2 cells at 0.3125 to 1.25 uM by propidium iodide staining based flow cytometric analysis; format: functional; conditions: TDE = time-dependent effect
HepG2 [8] = assay: Cell cycle arrest in human HepG2 cells after 24 hrs by propidium iodide staining based flow cytometric analysis; format: functional
HepG2 [9] = assay: Cell cycle arrest in human HepG2 cells assessed as accumulation at S phase at 0.3125 to 1.25 uM by propidium iodide staining based flow cytometric analysis; format: functional

Compound `CC(C)=CCC/C(C)=C/Cc1c(O)c(CC=C(C)C)c2c(c1O)C(=O)C1=C[C@@H]3C[C@H]4C(C)(C)O[C@@](C/C=C(/C)C(=O)OCCN5CCN(CCO)CC5)(C3=O)[C@@]14O2` has an IC50 (A549) of 2440 nM, an IC50 (HepG2 [1]) of 3.87 µM and an IC50 [2] of 2510 nM. For the same compound, the IC50 (U-251) was 3.82 µM.

For `CC(C)=CCC/C(C)=C/Cc1c(O)c(CC=C(C)C)c2c(c1O)C(=O)C1=C[C@@H]3C[C@@H]4C(C)(C)O[C@@](C/C=C(/C)C(=O)OCCCN5CCN(C)CC5)(C3=O)[C@@]14O2`, the Activity (HepG2 [3]) was “Active”, the IC50 (A549) was 1650 nM and the Activity (HepG2 [1]) was “Dose-dependent effect”. The IC50 (HepG2 [1]) was 0.98 µM, the IC50 [2] was 450 nM and the IC50 (U-251) was 1.13 µM. The Ratio (HepG2 [4]) was 0.598, the Ratio (HepG2 [5]) was 0.478 and the Ratio (HepG2 [6]) was 0.251. The Activity (HepG2 [7]) was “tde”, the Activity (HepG2 [8]) was “Dose-dependent effect” and the Activity (HepG2 [9]) was “Active”.

Work on `CC(C)=CCC/C(C)=C/Cc1c(O)c(CC=C(C)C)c2c(c1O)C(=O)C1=C[C@H]3C[C@H]4C(C)(C)O[C@](C/C=C(/C)C(=O)OCCCN5CCCCC5)(C3=O)[C@]14O2` yielded an IC50 (A549) of 2540 nM, an IC50 (HepG2 [1]) of 3.59 µM and an IC50 [2] of 4660 nM. The IC50 (U-251) was 8.87 µM.

`CCN(CC)CCCCOC(=O)/C(C)=C\C[C@]12OC(C)(C)[C@@H]3C[C@H](C=C4C(=O)c5c(O)c(C/C=C(\C)CCC=C(C)C)c(O)c(CC=C(C)C)c5O[C@@]431)C2=O` gave an IC50 (A549) of 3180 nM, an IC50 (HepG2 [1]) of 2.41 µM and an IC50 [2] of 1840 nM. For the same compound, the IC50 (U-251) was 4.62 µM.

With `CC(C)=CCC/C(C)=C/Cc1c(O)c(CC=C(C)C)c2c(c1O)C(=O)C1=C[C@@H]3C[C@@H]4C(C)(C)O[C@@](C/C=C(/C)C(=O)OCCN5CCN(C)CC5)(C3=O)[C@@]14O2` the IC50 (A549) was 1610 nM, the IC50 (HepG2 [1]) was 2.83 µM and the IC50 [2] was 2610 nM. It also gave an IC50 (U-251) of 3.45 µM.

In the case of `CC(C)=CCC/C(C)=C/Cc1c(O)c(CC=C(C)C)c2c(c1O)C(=O)C1=C[C@H]3C[C@H]4C(C)(C)O[C@](C/C=C(/C)C(=O)OCCCN5CCN(CCO)CC5)(C3=O)[C@]14O2`, the IC50 (A549) is reported as 1510 nM, the IC50 (HepG2 [1]) is reported as 2.75 µM and the IC50 [2] is reported as 2520 nM. For the same compound, the IC50 (U-251) was 1.18 µM.

Work on `CC(C)=CCC/C(C)=C/Cc1c(O)c(CC=C(C)C)c2c(c1O)C(=O)C1=C[C@H]3C[C@H]4C(C)(C)O[C@](C/C=C(/C)C(=O)OCCCN5CCOCC5)(C3=O)[C@]14O2` yielded an IC50 (A549) of 1300 nM, an IC50 (HepG2 [1]) of 5.79 µM and an IC50 [2] of 2360 nM. The IC50 (U-251) was 3.31 µM.

For `CC(C)=CCC/C(C)=C/Cc1c(O)c(CC=C(C)C)c2c(c1O)C(=O)C1=C[C@H]3C[C@H]4C(C)(C)O[C@](C/C=C(/C)C(=O)OCCN5CCOCC5)(C3=O)[C@]14O2`, the IC50 (A549) was 4270 nM, the IC50 (HepG2 [1]) was 6.36 µM and the IC50 [2] was 1890 nM. The IC50 (U-251) was 4.93 µM.

Compound `CC(C)=CCC/C(C)=C/Cc1c(O)c(CC=C(C)C)c2c(c1O)C(=O)C1=C[C@@H]3C[C@H]4C(C)(C)O[C@@](C/C=C(/C)C(=O)O)(C3=O)[C@@]14O2` [GAMBOGENIC ACID] has an IC50 (A549) of 3490 nM, an IC50 (HepG2 [1]) of 3.23 µM and an IC50 [2] of 4160 nM. It also gave an IC50 (U-251) of 3.22 µM.

Compound `CC(C)=CCC/C(C)=C/Cc1c(O)c(CC=C(C)C)c2c(c1O)C(=O)C1=C[C@H]3C[C@H]4C(C)(C)O[C@](C/C=C(/C)C(=O)OCCN5CCCCC5)(C3=O)[C@]14O2` has an IC50 (A549) of 1550 nM, an IC50 (HepG2 [1]) of 0.97 µM and an IC50 [2] of 1890 nM. The IC50 (U-251) was 4.93 µM.

Work on `CC(C)=CCC/C(C)=C/Cc1c(O)c(CC=C(C)C)c2c(c1O)C(=O)C1=C[C@@H]3C[C@@H]4C(C)(C)O[C@@](C/C=C(/C)C(=O)OCCCCN5CCCCC5)(C3=O)[C@@]14O2` yielded an IC50 (A549) of 3430 nM, an IC50 (HepG2 [1]) of 3.92 µM and an IC50 [2] of 4430 nM. The IC50 (U-251) was 2.78 µM.

For `CC(C)=CCC/C(C)=C/Cc1c(O)c(CC=C(C)C)c2c(c1O)C(=O)C1=C[C@@H]3C[C@H]4C(C)(C)O[C@@](C/C=C(/C)C(=O)OCCCCN5CCN(CCO)CC5)(C3=O)[C@@]14O2`, the IC50 (A549) was 9530 nM, the IC50 (HepG2 [1]) was 0.57 µM and the IC50 [2] was 790 nM. It also gave an IC50 (U-251) of 1.46 µM.

With `CCN(CC)CCCOC(=O)/C(C)=C\C[C@@]12OC(C)(C)[C@H]3C[C@@H](C=C4C(=O)c5c(O)c(C/C=C(\C)CCC=C(C)C)c(O)c(CC=C(C)C)c5O[C@]431)C2=O` the IC50 (A549) was 2940 nM, the IC50 (HepG2 [1]) was 2.64 µM and the IC50 [2] was 2850 nM. The IC50 (U-251) was 2.05 µM.

For `CC(C)=CCC/C(C)=C/Cc1c(O)c(CC=C(C)C)c2c(c1O)C(=O)C1=C[C@@H]3C[C@@H]4C(C)(C)O[C@@](C/C=C(/C)C(=O)OCCCCN5CCN(C)CC5)(C3=O)[C@@]14O2`, the IC50 (A549) was 3230 nM, the IC50 (HepG2 [1]) was 10.8 µM and the IC50 [2] was 7570 nM. The IC50 (U-251) was 17.5 µM.

With `CCN(CC)CCOC(=O)/C(C)=C\C[C@@]12OC(C)(C)[C@H]3C[C@@H](C=C4C(=O)c5c(O)c(C/C=C(\C)CCC=C(C)C)c(O)c(CC=C(C)C)c5O[C@]431)C2=O` the IC50 (A549) was 1410 nM, the IC50 (HepG2 [1]) was 1.95 µM and the IC50 [2] was 2860 nM. For the same compound, the IC50 (U-251) was 2.65 µM.

`CC(C)=CCC/C(C)=C/Cc1c(O)c(CC=C(C)C)c2c(c1O)C(=O)C1=C[C@@H]3C[C@@H]4C(C)(C)O[C@@](C/C=C(/C)C(=O)OCCCCN5CCOCC5)(C3=O)[C@@]14O2` gave an IC50 (A549) of 3170 nM, an IC50 (HepG2 [1]) of 14.3 µM and an IC50 [2] of 18600 nM. For the same compound, the IC50 (U-251) was 21.6 µM.
